Measured values from publication PMC10970644, “Molecular Pharmacology of Gelsemium Alkaloids on Inhibitory Receptors” (International Journal of Molecular Sciences, 2024).

Experiments:
α1 GlyR = molecular target: T1, α1 GlyR (Rattus norvegicus, UniProt P07727); conditions: homomeric α1GlyRs; cited from earlier work
T1 construct: expressed in transfected cells; host or cells: HEK293 (ATCC CRL-1573)
T1 sequence (P07727 29-457): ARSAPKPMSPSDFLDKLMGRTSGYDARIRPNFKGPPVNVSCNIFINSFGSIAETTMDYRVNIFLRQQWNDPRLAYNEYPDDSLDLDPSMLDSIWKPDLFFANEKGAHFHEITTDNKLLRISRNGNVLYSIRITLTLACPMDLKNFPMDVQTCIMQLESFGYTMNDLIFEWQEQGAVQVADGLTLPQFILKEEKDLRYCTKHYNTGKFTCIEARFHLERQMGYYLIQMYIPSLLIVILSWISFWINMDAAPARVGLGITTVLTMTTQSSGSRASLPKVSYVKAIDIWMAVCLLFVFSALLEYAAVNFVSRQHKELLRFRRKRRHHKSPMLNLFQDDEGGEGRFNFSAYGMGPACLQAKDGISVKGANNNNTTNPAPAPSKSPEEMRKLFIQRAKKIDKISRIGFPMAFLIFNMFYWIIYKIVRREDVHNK

α2 GlyR = molecular target: T2, α2 GlyR (Rattus norvegicus, UniProt P22771); conditions: cited from earlier work
T2 construct: The cells were transfected with plasmids encoding the following proteins; expressed in transfected cells; host or cells: HEK293 (ATCC CRL-1573)
T2 sequence (P22771 28-452): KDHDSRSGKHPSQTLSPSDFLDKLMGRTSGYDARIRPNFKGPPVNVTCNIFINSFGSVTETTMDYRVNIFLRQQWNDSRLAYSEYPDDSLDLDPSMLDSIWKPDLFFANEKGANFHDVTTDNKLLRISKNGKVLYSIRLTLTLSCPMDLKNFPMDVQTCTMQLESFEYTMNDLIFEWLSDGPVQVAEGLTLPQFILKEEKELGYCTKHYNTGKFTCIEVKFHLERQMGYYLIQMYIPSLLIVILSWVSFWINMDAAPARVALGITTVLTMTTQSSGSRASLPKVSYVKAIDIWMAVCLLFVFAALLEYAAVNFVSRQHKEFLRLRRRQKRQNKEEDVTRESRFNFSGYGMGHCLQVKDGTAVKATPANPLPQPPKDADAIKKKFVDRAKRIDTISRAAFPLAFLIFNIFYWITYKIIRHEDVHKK

native GlyRs = conditions: cited from earlier work
α1β GlyR = molecular target: T3, α1β GlyR (Rattus norvegicus, UniProt P07727+P20781); test: cell-based
T3 construct: The cells were transfected with plasmids encoding the following proteins; expressed in transfected cells; host or cells: HEK293 (ATCC CRL-1573)
T3 sequence (P20781 23-496, one chain of several): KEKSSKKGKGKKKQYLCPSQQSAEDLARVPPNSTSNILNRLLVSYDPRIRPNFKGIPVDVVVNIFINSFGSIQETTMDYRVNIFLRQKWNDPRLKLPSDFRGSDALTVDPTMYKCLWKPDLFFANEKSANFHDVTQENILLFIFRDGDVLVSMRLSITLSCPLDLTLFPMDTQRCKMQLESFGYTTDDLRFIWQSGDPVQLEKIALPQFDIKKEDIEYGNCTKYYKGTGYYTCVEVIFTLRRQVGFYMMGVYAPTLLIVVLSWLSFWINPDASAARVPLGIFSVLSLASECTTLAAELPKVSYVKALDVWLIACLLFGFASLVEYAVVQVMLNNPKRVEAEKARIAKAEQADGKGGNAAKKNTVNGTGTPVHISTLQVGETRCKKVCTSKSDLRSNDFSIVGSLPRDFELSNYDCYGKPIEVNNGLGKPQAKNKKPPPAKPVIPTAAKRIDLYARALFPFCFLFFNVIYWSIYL
Procedure: The cells were transfected with plasmids encoding the following proteins: (i). rat GlyR α (1, 2, 3) subunits alone or combined with rat β subunits (Uniprot Accession Numbers: Q546L7, P22771, P20236, P20781); and (ii). rat GABAAR α1 combined with rat β2 and γ2 subunits (Uniprot Accession Numbers: P62813, P63138, P18508). The EGFP expression was used as a marker of successful protein expression. The transfection was performed using Lipofectamine 2000 (Invitrogen, ThermoFisher, Carlsbad, CA, USA) using the fabricant protocol. The plasmids used to express GlyRs and GABAARs have been previously described. To track the successful expression of GlyR β subunits and the GABAA γ2 or β2 subunit, these proteins were subcloned in the pIRES2-EGFP vector. The transfection ratio to obtain β-containing GlyRs was 1:5 of α:β, while the expression of γ2-containing GABAA receptors was 1:2:5 of α:β:γ2 [14, 15]. Chimeric GlyRs were described in a previous report. Site directed mutagenesis was performed by Charm Gene Science Mutagenex LLC. (Cumming, GA, USA). All the constructs were checked by full-length sequencing (SNPSaurus, Eugene, OR, USA).
In brief, patch electrodes (3–4 MΩ) were pulled from borosilicate glasses in a PC-100 puller (Narishige, Tokyo, Japan); then, they were filled with an intracellular solution, which contained (in mM) 120 CsCl, 8 EGTA, 10 HEPES (pH 7.4), 4 MgCl2, 0.5 GTP, and 2 ATP. The extracellular solution contained (in mM) 140 NaCl, 5.4 KCl, 2.0 CaCl2, 1.0 MgCl2, 10 HEPES (pH 7.4), and 10 glucose. Whole-cell patch-clamp recordings were performed at −60 mV with an Axoclamp 200B (Molecular Devices, Sunnyvale, CA, USA) or with HEKA EPC-10 (HEKA Elektronik GmbH, Reutlingen, Germany) amplifiers. […] Brief (3–5 s) pulses of agonist together with alkaloids were applied to cells. Stock solutions of the alkaloids were prepared in high purity distilled water. Aliquots of these stock solutions were diluted in reservoirs containing extracellular solution. […] The concentration–response curve parameters for the alkaloid inhibition (IC50, nH, and the maximal current inhibition) were obtained from the fitted curve of normalized concentration–response data points to the equation Iagonist = Imax (agonist)nH/((agonist)nH + (EC50)nH). The IC50 curves are best-fit mean ± SE from pooled data. […] The inhibition constant (Ki) was calculated using the Cheng–Prusoff equation (Ki = IC50/((2 + ([Agonist]/EC50)^nH)^1/nH − 1). The concentration of agonist corresponds to the sub-saturating agonist concentration used to obtain the IC50 for each alkaloid on a given GlyR subtype.

| Compound | modulation of currents (in words) (α1 GlyR) | modulation of currents (in words) (α2 GlyR) | IC50 (native GlyRs) | IC50 (α1β GlyR) | nH (α1β GlyR; Hill coefficient of inhibition curve) | Maximal Modulation (α1β GlyR; percentage change of glycine-evoked current) |
| --- | --- | --- | --- | --- | --- | --- |
| C=C[C@]12CN(C)[C@@H]3[C@H]4CO[C@H](C[C@H]41)[C@]1(C(=O)Nc4ccccc41)[C@@H]32 [gelsemine] | bell-shape modulation | concentration-dependent inhibition | ~40 µM | – | – | – |
| C=C[C@@]12CN(C)[C@H]3C[C@]14C(=Nc1ccccc14)[C@H]1C[C@@H]2[C@@H]3CO1 [koumine] | – | – | – | 32.5 ± 13.2 µM | 0.9 ± 0.5 | −90.8 ± 2.3% |
